Converted amounts (≈) assume the structure as drawn. Read-outs that look alike come from different tables or passages of the source.
Columns and labels:
[1] = tested on: M. catarrhalis ATCC25238I; experiment: Micro-broth dilution growth inhibition, M. catarrhalis; type: cell-based
[2] = tested on: C. albicans FH2173; experiment: Micro-broth dilution growth inhibition, C. albicans (ATP quantification); type: cell-based
[3] = physchem; type: physicochemical; details: for chromatographic logD: pH 7.4, Log D pH 7.4
Description: 2.4. Assay descriptions for the profiling of all four stereoisomers of (+)-floyocidin B and (−)-avicennone C,1 the avicennone C-floyocidin B hybrids 35, ent-35, 36 and ent-36 as well as the natural product (+)-floyocidin A.
Determination of logD 7.4
LogD values at pH 7.4 were determined by a standardized HPLC method derived from by Genieser et al.8 The calculation of the logD value for measured compounds is performed by comparison of the retention times with standard compounds of known distribution coefficients between 1 -octanol and water at pH 7.4. […]
8 Krass, J. D., Jastorff, B., and Genieser, H.-G. Anal. Chem. 1997, 69, 2575–2581. […]

[4] = Microsomal stability, human; type: in vitro ADME; details: 1 µM compound; for Microsomal stability CLint, Human / Microsomal stability t1/2, Human: human liver microsomes 0.5 mg/mL; for microsomal CLint at 1 µM / half-life at 1 µM: human, pooled liver microsomes, pH 7.4, human liver microsomes 0.5 mg/mL; for half-life at 1 µM: read-out: Microsomal stability t1/2, Human
Description: (§1) 2.4. Assay descriptions for the profiling of all four stereoisomers of (+)-floyocidin B and (−)-avicennone C,1 the avicennone C-floyocidin B hybrids 35, ent-35, 36 and ent-36 as well as the natural product (+)-floyocidin A. […]
(§2) Pooled liver microsomes are purchased. Microsomes are stored at –80 °C prior to use. Microsomes (final protein concentration 0.5 mg/mL), 0.1 M phosphate buffer pH 7.4, and test compound (final substrate concentration 1 µM; final DMSO concentration 0.25%) are preincubated at 37 °C prior to the addition of NADPH (final concentration 1 mM) to initiate the reaction. A minus cofactor control i ncubation is included for each compound tested where 0.1 M phosphate buffer pH 7.4 is added instead of NADPH. Two control compounds are included. All incubations are performed singularly for each test compound. Each compound is incubate d for 0, 5, 15, 30, and 45 min. The control is incubated for 45 min only. The reactions are stopped by transferring incubate into acetonitrile at the appropriat e time points, in a 1:3 ratio. The termination plates are centrifuged at 3,000 rpm for 20 min at 4 °C to precipitate the protein.
(§3) From a plot of ln peak area ratio (compound peak area/internal standard peak area) against time, the gradient of the line is determined. Subsequently, half -life and intrinsic clearance are calculated using the equations below:
(§4) Elimination rate constant (k) = (- gradient)
(§5) Intrinsic clearance (CL )(µL/min/mg protein) = V x 0.693 […]
(§6) where V = Incubation volume (µL)/Microsomal protein (mg)
(§7) Relevant control compounds are assessed, ensuring intrinsic clearance values fall within the specified limits (if available). […]

[5] = tested on: THP1 cells; experiment: Cytotoxicity on THP1 cells (CellTiterGlo); type: cell-based; details: THP1 cells; 40 h
Description: (§8) Cytotoxicity on THP1 and HepG2 cells
(§9) After 4 hours of HepG2 cell line (provided by ATCC) plating at 2.500 cells /well in 384-w plates, compounds were added to the cells. After an incubation at 37 °C for 40 h, the CellTiterGlo assay (provided by Promega) was performed.
(§10) Luminescence measurement is related to the cell viability. Compound activity is determined by using the control wells with no treatment as control (100% of growth). The assay was performed identically with THP1 cells. All incubations were […]

[6] = tested on: HepG2 cells; experiment: Cytotoxicity on HepG2 cells (CellTiterGlo); type: cell-based; details: 40 h
Description: as §8, §9, §10

[7] = tested on: Caco-2 cells; experiment: Cellular permeability assay utilizing Caco2 cell line; details: 10 µM, 120 min; for Caco‐2 permeability Papp +Elacridar / Caco‐2 permeability recovery +Elacridar: A2B in the presence of elacridar
[8] = tested on: E. coli ATCC25922; experiment: Micro-broth dilution growth inhibition, E. coli (CAMH); type: cell-based; details: Escherichia coli, 18 h
[9] = tested on: E. coli ATCC25922 MHC; experiment: Micro-broth dilution growth inhibition, E. coli in CAMH with 44 mM sodium bicarbonate (MHC); type: cell-based; details: E. coli ATCC25922 MHC (CAMH + 44 mM sodium bicarbonate)
[10] = tested on: P. aeruginosa ATCC27853; experiment: Micro-broth dilution growth inhibition, P. aeruginosa; type: cell-based; details: Pseudomonas aeruginosa, 18 h
[11] = tested on: S. aureus ATCC25923; experiment: Micro-broth dilution growth inhibition, S. aureus; type: cell-based; details: Staphylococcus aureus, 18 h
[12] = Microsomal stability, mouse; type: in vitro ADME; details: for Microsomal stability CLint, Mouse / Microsomal stability t1/2, Mouse: mouse liver microsomes 0.5 mg/mL
Description: as §1, §2, §3, §4, §5, §6, §7

[13] = Cellular permeability assay utilizing Caco2 cell line; details: human; for Papp at 120 min, 10 µM: Caco-2, Caco‐2 permeability Papp +Elacridar, A2B in the presence of elacridar; for Papp A→B at 120 min, 10 µM: Caco-2, Caco‐2 permeability Papp A2B, A2B
[14] = tested on: M. tuberculosis H37Rv; experiment: Growth inhibition, M. tuberculosis H37Rv (Middlebrook 7H9, CellTiter-Blue); type: cell-based; details: M. tuberculosis H37Rv (Mtb); 6 days
[15] = Escherichia coli, ATCC25922, 18 h, read-out: MIC
[16] = Candida albicans, FH2173, 48 h, read-out: MIC
[17] = Moraxella catarrhalis, ATCC25238I, read-out: MIC

## CC(C)=CCC12OC1C(O)c1ccccc1C2=O (stereo not drawn) [compound 2, (−)‐avicennone C, reference compound]
[1]
  MIC: 64 µg/mL (≈ 262 µM)
[2]; 48 h
  MIC: 128 µg/mL (≈ 524 µM)
[3]
  Log D pH 7.4: 2.86
[4]
  Microsomal stability CLint, Human: 150 μL/min/mg protein
  Microsomal stability t1/2, Human: 9.26 min
[5]
  Cytotoxicity TC50 THP1: 30 µM
[6]
  Cytotoxicity TC50 HepG2: >30 µM
[7]
  Caco‐2 permeability Papp +Elacridar: 393 10^−7 cm s^−1
  Caco‐2 permeability recovery +Elacridar: 83.4%
  Caco‐2 permeability Papp A2B: 407 10^−7 cm s^−1
  Caco‐2 permeability recovery A2B: 86.7%

## CCC/C=C/C=C/C1=C(CO)[C@@H](O)[C@H]2O[C@@]2(CC=C(C)C)C1=O [compound 3, (1R,5R,6R)‐3‐((1E,3E)‐Hepta‐1,3‐dien‐1‐yl)‐5‐hydroxy‐4‐(hydroxymethyl)‐1‐(3‐methylbut‐2‐en‐1‐yl)‐7‐oxabicyclo[4.1.0]hept‐3‐en‐2‐one]
[8]
  MIC: > 128 µg/mL
[9]; [15]
  MIC: > 128 µg/mL
[10]
  MIC: > 128 µg/mL
[11]
  MIC: 64 µg/mL (≈ 201 µM)
[2]; [16]
  MIC: > 128 µg/mL
[3]
  chromatographic logD: 4.11

## CCC/C=C/c1cc2c(cn1)[C@H](O)[C@H]1O[C@@]1(CC=C(C)C)C2=O [compound 27, (1aR,2S,7aR)‐2‐Hydroxy‐7 a‐(3‐methylbut‐2‐en‐1‐yl)‐5‐((E)‐pent‐1‐en‐1‐yl)‐1 a,7 a‐dihydrooxireno[2,3‐g]isoquinolin‐7(2H)‐one]
[8]
  MIC: > 128 µg/mL
[9]; [15]
  MIC: > 128 µg/mL
[10]
  MIC: > 128 µg/mL
[11]
  MIC: > 128 µg/mL
[2]; [16]
  MIC: > 128 µg/mL
[3]
  chromatographic logD: 4.14
[4]
  microsomal CLint at 1 µM: 95.8 µL/min/mg
  half-life at 1 µM: 14.5 min
[12]; mouse, pooled liver microsomes, pH 7.4, mouse liver microsomes 0.5 mg/mL, 1 µM compound, read-out: Microsomal stability CLint, Mouse
  microsomal CLint at 1 µM: 1500 µL/min/mg
[12]; mouse, pooled liver microsomes, pH 7.4, mouse liver microsomes 0.5 mg/mL, 1 µM compound, read-out: Microsomal stability t1/2, Mouse
  half-life at 1 µM: 0.924 min
[5]
  Cytotoxicity TC50 THP1: 10.6 µM
[6]
  Cytotoxicity TC50 HepG2: 10.7 µM
[13]
  Papp at 120 min, 10 µM: 8.77 ×10⁻⁶ cm/s
  Papp A→B at 120 min, 10 µM: 11.7 ×10⁻⁶ cm/s
[7]
  Caco‐2 permeability recovery +Elacridar: 38.5%
  Caco‐2 permeability recovery A2B: 42.1%

## CC(C)=CCC12OC1C(O)c1ccccc1C2=O (stereo not shown) [compound 37]
[1]
  MIC: 128 µg/mL (≈ 524 µM)
[2]; 48 h
  MIC: 128 µg/mL (≈ 524 µM)
[3]
  chromatographic logD: 2.82
[4]
  Microsomal stability CLint, Human: 54.6 μL/min/mg protein
  Microsomal stability t1/2, Human: 25.4 min
[12]; mouse, microsomes, pH 7.4, Microsomal stability CLint
  microsomal CLint at 1 µM: > 1500 µL/min/mg
[5]
  Cytotoxicity TC50 THP1: 27.2 µM
[6]
  Cytotoxicity TC50 HepG2: 30 µM
[13]
  Papp at 120 min, 10 µM: 27.9 ×10⁻⁶ cm/s
  Papp A→B at 120 min, 10 µM: 32.6 ×10⁻⁶ cm/s
[7]
  Caco‐2 permeability recovery +Elacridar: 80.9%
  Caco‐2 permeability recovery A2B: 74.8%

## CC(C)=CCC12OC1C(O)c1ccccc1C2=O (stereo not shown) [compound 38]
[8]
  MIC: > 128 µg/mL
[9]; [15]
  MIC: > 128 µg/mL
[10]
  MIC: > 128 µg/mL
[11]
  MIC: > 128 µg/mL
[1]; [17]
  MIC: 128 µg/mL (≈ 524 µM)
[2]; [16]
  MIC: > 128 µg/mL
[3]
  Log D pH 7.4: 2.84
[4]
  Microsomal stability CLint, Human: 76.0 μL/min/mg protein
  Microsomal stability t1/2, Human: 18.2 min
[12]; 1 µM compound
  Microsomal stability CLint, Mouse: 1070 μL/min/mg protein
  Microsomal stability t1/2, Mouse: 1.29 min
[5]
  Cytotoxicity TC50 THP1: 30 µM
[6]
  Cytotoxicity TC50 HepG2: 9.49 µM
[7]
  Caco‐2 permeability Papp +Elacridar: 331 10^−7 cm s^−1
  Caco‐2 permeability recovery +Elacridar: 132%
  Caco‐2 permeability Papp A2B: 620 10^−7 cm s^−1
  Caco‐2 permeability recovery A2B: 127%

## CCCC=Cc1cc2c(cn1)C(O)C1OC1(CC=C(C)C)C2=O (stereo not drawn) [ent‐4]
[8]
  MIC: > 128 µg/mL
[9]; [15]
  MIC: > 128 µg/mL
[10]
  MIC: > 128 µg/mL
[11]
  MIC: > 128 µg/mL
[1]; [17]
  MIC: 16 µg/mL (≈ 51.1 µM)
[2]; [16]
  MIC: > 128 µg/mL
[3]
  chromatographic logD: 3.97
[4]
  microsomal CLint at 1 µM: 26.9 µL/min/mg
  half-life at 1 µM: 51.6 min
[12]; 1 µM compound
  Microsomal stability CLint, Mouse: 271 μL/min/mg protein
  Microsomal stability t1/2, Mouse: 5.12 min
[5]
  Cytotoxicity TC50 THP1: 8.78 µM
[6]
  Cytotoxicity TC50 HepG2: 5.97 µM
[13]
  Papp at 120 min, 10 µM: 4.67 ×10⁻⁶ cm/s
  Papp A→B at 120 min, 10 µM: 7.35 ×10⁻⁶ cm/s
[7]
  Caco‐2 permeability recovery +Elacridar: 28.7%
  Caco‐2 permeability recovery A2B: 23.4%
[7]; listed as ent-4
  Caco‐2 permeability recovery +Elacridar: 28.7%
  Caco‐2 permeability recovery A2B: 23.4%

## CCCC=Cc1cc2c(cn1)C(O)C1OC1(CC=C(C)C)C2=O (stereo not drawn) [ent‐27]
[1]
  MIC: 8 µg/mL (≈ 25.5 µM)
[3]
  Log D pH 7.4: 4.16
[4]
  Microsomal stability CLint, Human: 44.3 μL/min/mg protein
  Microsomal stability t1/2, Human: 31.3 min
[12]; 1 µM compound
  Microsomal stability CLint, Mouse: 764 μL/min/mg protein
  Microsomal stability t1/2, Mouse: 1.81 min
[5]
  Cytotoxicity TC50 THP1: 11.5 µM
[6]
  Cytotoxicity TC50 HepG2: 10.4 µM
[7]
  Caco‐2 permeability Papp +Elacridar: 64.4 10^−7 cm s^−1
  Caco‐2 permeability recovery +Elacridar: 15.3%
  Caco‐2 permeability Papp A2B: 40.5 10^−7 cm s^−1
  Caco‐2 permeability recovery A2B: 8.69%
[7]; listed as ent-27
  Caco‐2 permeability recovery +Elacridar: 15.3%
  Caco‐2 permeability recovery A2B: 8.69%

## CCCC=Cc1ccc2c(c1)C(=O)C1(CC=C(C)C)OC1C2O (stereo not drawn) [ent‐36]
[14]
  MIC: 9.4 µg/mL (≈ 30.1 µM)
[3]
  Log D pH 7.4: 4.74
[4]
  Microsomal stability CLint, Human: 29.9 μL/min/mg protein
  Microsomal stability t1/2, Human: 46.3 min
[12]; 1 µM compound
  Microsomal stability CLint, Mouse: 721 μL/min/mg protein
  Microsomal stability t1/2, Mouse: 1.92 min
[5]
  Cytotoxicity TC50 THP1: 18.2 µM
[6]
  Cytotoxicity TC50 HepG2: 11.3 µM
[7]
  Caco‐2 permeability Papp +Elacridar: 12.4 10^−7 cm s^−1
  Caco‐2 permeability recovery +Elacridar: 12.0%
  Caco‐2 permeability Papp A2B: 8.55 10^−7 cm s^−1
  Caco‐2 permeability recovery A2B: 14.3%
[7]; listed as ent-36
  Caco‐2 permeability recovery +Elacridar: 12.0%
  Caco‐2 permeability recovery A2B: 14.3%

## CC(C)=CCC12OC1C(O)c1ccccc1C2=O (stereo not drawn) [ent‐37]
[9]; 18 h
  MIC: 128 µg/mL
[2]; 48 h
  MIC: 128 µg/mL (≈ 524 µM)
[3]
  Log D pH 7.4: 2.82
[4]
  Microsomal stability CLint, Human: 73.5 μL/min/mg protein
  Microsomal stability t1/2, Human: 18.9 min
[12]; 1 µM compound
  Microsomal stability CLint, Mouse: 370 μL/min/mg protein
  Microsomal stability t1/2, Mouse: 3.75 min
[5]
  Cytotoxicity TC50 THP1: 25.2 µM
[6]
  Cytotoxicity TC50 HepG2: 30 µM
[7]
  Caco‐2 permeability Papp +Elacridar: 300 10^−7 cm s^−1
  Caco‐2 permeability recovery +Elacridar: 74.6%
  Caco‐2 permeability Papp A2B: 360 10^−7 cm s^−1
  Caco‐2 permeability recovery A2B: 81.3%
[7]; listed as ent-37
  Caco‐2 permeability recovery +Elacridar: 74.6%
  Caco‐2 permeability recovery A2B: 81.3%
